Measurements: patent US20250123280A1, “LABEL-FREE DETECTION OF PROTEASE ACTIVITY” (OREGON HEALTH & SCIENCE UNIVERSITY, priority 2021, published 2025)
Peptide text beside a SMILES is read from it. * marks the point of attachment. Fmoc = O=C(OCC1c2ccccc2-c2ccccc21)*

Assays:
legumain [1] = target: T1, legumain (Mus musculus, UniProt O89017); assay: LC-MS analysis of hydrolysis of peptide 1 by legumain; format: biochemical; conditions: peptide about 0.5 mg/mL, legumain about 1000 ng/mL, 37° C., about 2 hours
T1 construct: purchased Novus Biologicals
T1 sequence (O89017 18-325 limits assumed): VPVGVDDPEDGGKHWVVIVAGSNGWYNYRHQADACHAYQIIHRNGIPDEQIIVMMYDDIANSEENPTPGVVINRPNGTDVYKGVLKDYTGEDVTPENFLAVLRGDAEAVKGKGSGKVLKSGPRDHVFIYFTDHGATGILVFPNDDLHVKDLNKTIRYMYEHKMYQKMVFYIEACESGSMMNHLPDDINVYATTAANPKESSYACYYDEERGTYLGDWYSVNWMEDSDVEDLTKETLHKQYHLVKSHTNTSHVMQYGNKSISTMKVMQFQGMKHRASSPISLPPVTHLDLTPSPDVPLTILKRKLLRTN
Protocol: Fluorescence spectroscopy. For fluorescence measurements, peptide 2 was dissolved in DMSO to give a peptide concentration of 10 mg/mL, and it was 5× diluted in DMSO or the assay buffer and fluorescence spectra of the Fmoc groups were recorded using an FP-8500 spectrofluorometer (JASCO, Inc). Liquid chromatography mass spectrometry (LC-MS) measurements. LC-MS measurements were carried using an Acquity UPLC System (Waters) equipped with a SQ Detector 2 (Waters) and a C18 column (Waters). For LC-MS measurement, peptide 1 was first dissolved in ultrapure water containing 25% DMSO and diluted in PBS and MES mixture with or without legumain as described above. Final peptide concentration was about 0.5 mg/mL and legumain concentrations were about 0 ng/mL and about 1000 ng/mL. Samples were incubated at 37° C. for about 2 hours, diluted in HPLC grade water and acetonitrile mixture (1:1) containing 1% formic acid, and loaded to the column.

legumain [2] = target: T1, legumain; assay: Legumain activity detection in human plasma (peptide 1/ThT); format: biochemical
Protocol: In the peptide concentration experiment, appropriate amounts of peptide 1 stock solution (10 mg/mL) were diluted in PBS and mixed with the MES buffer containing legumain, as described above, to give the final peptide concentrations between 0.05 and 1 mg/mL in the assay. In kinetic studies, ThT solution was mixed with the peptide immediately before the addition of activated legumain, and the plate was incubated in a Spark 20M microplate reader (Tecan) at 37° C. for 3 hours, and ThT fluorescence was recorded every 4 minutes. For the inhibitor experiment, the legumain inhibitor, RR-11a, was first dissolved in DMSO (1 mM), and appropriate amounts of inhibitor were incubated with legumain for about 1.0 hour at room temperature in 96 well plates. Finally, the legumain solutions incubated with different amounts of inhibitor were mixed with the peptide 1 solution, and the assay was performed as described above. […]
To assess the possibility of using the developed self-assembling polypeptides and methods in complex biological environments, legumain detection experiments in human plasma were performed. In initial studies, a background fluorescence signal in plasma (20%) was detected due to the nonspecific interactions between ThT and plasma proteins (see FIG. 24A) (Rovnyagina, N. R. et al., Binding of Thioflavin T by Albumins: An Underestimated Role of Protein Oligomeric Heterogeneity. Int. J. Biol. Macromol. 2018, 108, 284-290). While this background signal was relatively strong, the incubation of peptide 1 in legumain (1000 ng/mL) spiked plasma still produced a detectable fluorescence enhancement (about 2.5 fold) after the addition of ThT (90 μM). […]
Having a better understanding of the assay's background fluorescence, further studies were performed to optimize the assay performance in plasma. To reduce the background fluorescence, the assay was run in plasma using lower ThT concentrations (see FIGS. 26A and 26B). […] In the optimized assay conditions, a fluorescence enhancement of about 20 fold was obtained in 10% plasma at the legumain concentration of 1000 ng/mL as shown in FIG. 12A. […]

[3] = CD time-course of structures formed by peptide 1 with legumain; format: physicochemical; conditions: after two weeks with legumain, 37° C.
Protocol: A time-course study of the legumain assay was also run. Peptide 1 was dissolved at 0.333 mg/mL in low far-UV absorbance CD buffer, pH 5.5-6. Legumain was activated for abut 2 hours at 37° C. in far-UV absorbance CD buffer, pH 4. Spectra were acquired from 260-190 nm with 1.0 nm band-width, 20 nm/min scan speed, and 2 sec integration time. A 5 minute acquisition cycle was automatically run 26 times, followed by manual acquisitions at 28 hours, 53 hours, 78 hours, and 14 days. The temperature was maintained at 37° C. throughout. Legumain (333 ng/mL) was mixed with peptide 1 just prior to acquisition of the second spectrum (the 0 min time point). All spectra were subsequently background subtracted and then smoothed using a Savitsky-Golay filter. Data are presented in units of molar circular dichroism, Δε(M^−1 cm^−1).

[4] = Solubility in aqueous solutions; format: physicochemical

peptide cleaved by legumain (LC-MS) (legumain [1]): ~30%
fluorescence enhancement (legumain [2]; 10% plasma, ThT 25 μM, legumain 1000 ng/mL): about 20 fold
fluorescence enhancement (legumain [2]; 20% plasma spiked with legumain 1000 ng/mL, ThT 90 μM): about 2.5 fold
ON/OFF ratio of the assay (legumain [2]; albumin depleted 20% plasma): about 10
stability of the formed structures (CD spectrum) [3]: long-term stability
solubility in aqueous solutions [4]: good solubility
Compound: C[C@H](NC(=O)[C@H](C)NC(=O)[C@H](CCC(=O)O)NC(=O)[C@H](Cc1ccccc1)NC(=O)[C@H](CCCCN)NC(=O)[C@H](Cc1ccccc1)NC(=O)OCC1c2ccccc2-c2ccccc21)C(=O)N[C@@H](CC(N)=O)C(=O)NCC(=O)N[C@@H](CCC(=O)O)C(=O)N[C@@H](CCC(=O)O)C(=O)NCC(=O)N[C@@H](CO)C(=O)NCC(=O)N[C@@H](CCC(=O)O)C(=O)N[C@@H](CCC(=O)O)C(=O)O [peptide 1] (Fmoc-FKFEAANGEEGSGEE-OH; C-terminus assumed)
